This is an account of results in PubChem BioAssay AID1996.

The term solubility (kinetic) denotes the concentration staying in solution when a stock, usually in DMSO, is diluted into the medium.

≈ marks a conversion by molar mass, not a printed value. A value given as a limit tells only on which side of the number the result lay.

For this data set the following is noted: buffer; pH 7.4; 200.0 µM.
In the case of `Cc1sc2c(c1C)C(=O)/C(=C\Nc1ccncc1)S(=O)(=O)N2C`, the kinetic solubility amounted to 1.9 µg/mL (≈ 5.44 µM).
For `O=C(COC(=O)CNC(=O)c1ccc(F)cc1)NC1CCCc2ccccc21` (stereo not drawn), the kinetic solubility is over 57.7 µg/mL.
Compound `O=C(NCc1ccccc1)c1ccccc1-c1nc2ccccc2[nH]1` displayed a kinetic solubility of 2.2 µg/mL (≈ 6.72 µM).
As for `COc1cc(CN2CCN(CC3CC3)CC2CCO)cc(OC)c1` (stereo not drawn), the kinetic solubility is 42.6 µg/mL (≈ 127 µM).
Consider `COC(=O)Cn1cc(C(=O)C(C)(C)C)c2ccccc21`, for which the kinetic solubility amounted to 37.1 µg/mL (≈ 136 µM). This solubility kinetic and that of the compound before are within 1.5-fold of each other.
Take `O=C(c1ccc(Cn2cc([N+](=O)[O-])cn2)o1)N1CCCCCC1`: the kinetic solubility was over 47.7 µg/mL.
With `N#Cc1cccc(NC(=O)CCc2ccc(S(=O)(=O)N3CCOCC3)cc2)c1` the figure was 48 µg/mL (≈ 120 µM); with `CC1(CCBr)C(=O)N(c2ccccc2)c2ccccc21` (stereo not drawn), 22.9 µg/mL (≈ 69.3 µM).
Regarding `CCOC(=O)COc1cccc2c(=O)n(CC(N)=O)ccc12`, the kinetic solubility amounted to 24.4 µg/mL (≈ 80.2 µM).
`COc1ccc(C(=O)c2nc3ccccc3n2C(C)C)cc1` came in with a solubility (kinetic) of 22.3 µg/mL (≈ 75.8 µM).
On to `Fc1c(F)c(F)c(NC2=NCCCCC2)c(F)c1F`, for which the solubility (kinetic) is over 41.7 µg/mL.
With `Cc1nc(SCC(=O)O)c(C#N)c(-c2ccco2)c1C(=O)N(C)C` the figure was over 51.8 µg/mL; with `Br.CN(/N=C/c1ccncc1)C1=NCCN1`, over 42.6 µg/mL.
As for `O=C(CNC(=O)c1cccc(OC(F)F)c1)Nc1ccc(Cl)cc1`, the solubility (kinetic) was found to be 3.4 µg/mL (≈ 9.58 µM).
Turning to `CCn1cnc2cc(NCc3cccs3)ccc21`, the kinetic solubility is over 38.6 µg/mL.
`O=C(Cn1c(=O)oc2ccccc21)NCCc1ccccc1`: the kinetic solubility was determined as 44 µg/mL (≈ 148 µM).
In turn, `O=C1C2C3C=CC(CC3)C2C(=O)N1c1ccc(Cl)cc1Cl` (stereo not drawn) yielded a solubility (kinetic) of 9.7 µg/mL (≈ 30.1 µM).
Compound `COc1ccccc1NC(=O)COC(=O)c1ccc([N+](=O)[O-])s1` had a solubility (kinetic) of 5.1 µg/mL (≈ 15.2 µM).
`Cc1ccc(CC(=O)Nc2nccs2)cc1` came in with a kinetic solubility of 29.8 µg/mL (≈ 128 µM).
Consider `Nc1cccc([N+](=O)[O-])c1`, for which the solubility (kinetic) came to 16.7 µg/mL (≈ 121 µM).
Consider `Cc1ccc(NC(=S)NC(=O)C2CCCC2)cc1C`, for which the kinetic solubility was determined as 0.5 µg/mL (≈ 1.81 µM).
Regarding `Cc1ccc(-n2c(C)cc(C(=O)OCC(=O)N3CCOCC3)c2C)cc1`, the solubility (kinetic) is over 53.5 µg/mL.
The result for `COCCNC(=O)C(=O)Nc1ccc(Cl)cc1C` reads over 40.6 µg/mL.
The compound `CC(=O)c1cn(CC(=O)NCCc2c[nH]c3ccccc23)c2ccccc12` had a solubility (kinetic) of 2.6 µg/mL (≈ 7.23 µM).
`COc1ccc(Cl)cc1NC(=O)NCCN1CCNC1=O` yielded a solubility (kinetic) of 43.9 µg/mL (≈ 140 µM). Compared with the last compound, the solubility kinetic is about 17-fold higher.
With `Cc1ccc(C(=O)O/N=C(\N)c2ccccn2)cc1C`, the kinetic solubility was found to be 2.6 µg/mL (≈ 9.65 µM). Against the preceding compound, the solubility kinetic is about 17-fold lower.
For `CC(=O)C1=C(O)CC(C)(C)CC1=NCc1nc2ccccc2[nH]1`, the kinetic solubility is over 46.7 µg/mL.
Take `COc1cc(/C=C/C(=O)OCC(=O)NC(=O)NCc2ccco2)ccc1OC(F)F`: the solubility (kinetic) was 7.1 µg/mL (≈ 16.7 µM).
Turning to `CCN(CC)CCOCCOC(=O)C(CC)(CC)c1ccccc1`, the solubility (kinetic) is 47.7 µg/mL (≈ 142 µM). This solubility kinetic is about 6.7-fold higher than that of the compound before.
With `CC(=O)Nc1c(Cl)cnn(-c2ccccc2)c1=O` the figure was over 39.6 µg/mL; with `Cc1cc(C)cc(C(=O)N(C)C2CCCN(Cc3ccccc3F)C2)c1` (stereo not drawn), over 53.2 µg/mL; with `Cc1ccc(Nc2nc(Cl)nc(NC(C)(C)C)n2)cc1`, 3.8 µg/mL (≈ 13 µM).
As for `O=C(/C(=C(\O)c1ccccc1)c1ncc[nH]1)c1ccccc1`, the solubility (kinetic) stood at 9.5 µg/mL (≈ 32.7 µM).
The compound `CC[n+]1ccc(/C=C/c2c[nH]c3ccccc23)cc1.[Cl-]` registered a kinetic solubility of 32.8 µg/mL.
In turn, `CSc1nsc(SCC(=O)NCc2ccc(C)cc2)n1` displayed a solubility (kinetic) of 11.8 µg/mL (≈ 36.3 µM).
For `Cc1cc(Cl)nc(Cl)c1C(=O)NCCc1ccccc1`, the solubility (kinetic) was over 46.4 µg/mL.
Turning to `Cc1ccc(NC(=O)C2=CN3CCS(=O)(=O)N=C3C=C2)cc1`, the kinetic solubility came out at 12.7 µg/mL (≈ 40 µM).
As to `Cl.NCCCCCC(=O)Nc1ccncc1`, the kinetic solubility is over 36.6 µg/mL.
The compound `CCOC(=O)CC(=O)c1[nH]c(C)c(C(=O)OCC)c1C` yielded a solubility (kinetic) of 14.3 µg/mL (≈ 50.8 µM).
The result for `Cc1ccc(C)c(OCCC(=O)OCC(=O)NC2CCCC2)c1` reads 43.5 µg/mL (≈ 136 µM); that for `Cc1noc(C)c1COC(=O)c1cccnc1Cl`, over 40 µg/mL; that for `Cl.c1ccc2c3c(c(CN4CCCCC4)cc2c1)COC3`, over 45.6 µg/mL.
`O=C(Nc1cc([N+](=O)[O-])ccc1O)NC1CCS(=O)(=O)C1` (stereo not drawn): the kinetic solubility was over 47.3 µg/mL.
As for `C=C(C)C(=O)Nc1cccnc1Oc1ccc(F)cc1F`, the solubility (kinetic) came out at 40.8 µg/mL (≈ 141 µM).
With `COc1ccc(CNC(=O)c2cc(=O)c3cc(C)cc(C)c3o2)cc1` the figure was under 0.7 µg/mL.
For the compound `O=[N+]([O-])c1ccc(Nc2ccccn2)c([N+](=O)[O-])c1`, the kinetic solubility is 2.7 µg/mL (≈ 10.4 µM).
Take `CC1CC(C)CN(C(=O)c2cc3ccccc3o2)C1` (stereo not drawn): the solubility (kinetic) is 28.7 µg/mL (≈ 112 µM).
In turn, `Cc1cccc(C)c1OCC(=O)N1CCc2ccccc2C1` had a kinetic solubility of 34.5 µg/mL (≈ 117 µM).
The result for `CC(=O)N1c2ccccc2C(CBr)=CC1(C)C` reads 31.8 µg/mL (≈ 108 µM); that for `CN(Cc1nc2ccccc2c(=O)[nH]1)C(=O)c1cccc(NC(=O)c2cccs2)c1`, over 62.8 µg/mL; that for `c1coc(-c2ccnc(-c3ccncc3)n2)c1`, over 33.5 µg/mL.
For `CCOC(=O)c1c(N)sc(C(=O)N(CC)CC)c1C`, the kinetic solubility is over 42.7 µg/mL.
`CSCCOC(=O)C1=C(C)NC(=O)NC1c1ccc2c(c1)OCO2` (stereo not drawn): the solubility (kinetic) was over 52.6 µg/mL.
Consider `CN(C)c1ccc(/C=C/c2nc3ccccc3c(=O)n2CCO)cc1`, for which the solubility (kinetic) turned out to be 40.7 µg/mL (≈ 121 µM).
For the compound `O=c1cccc2n1CC1CNCC2C1` (stereo not drawn), the solubility (kinetic) was over 28.5 µg/mL.
Take `CCOc1ccc(/C=C/c2nc(C#N)c(NCCCOC)o2)cc1`: the solubility (kinetic) turned out to be 3.4 µg/mL (≈ 10.4 µM).
Turning to `Cc1ccc(Nc2c(-c3ccc(N(C)C)cc3)nc3ncccn23)cc1`, the kinetic solubility worked out at 1 µg/mL (≈ 2.91 µM).
The result for `Cl.Fc1ccc(OCCCCN2CCOCC2)cc1` reads over 43.5 µg/mL; that for `CCC(=O)c1cn(CC(=O)Nc2ccccc2Cl)c2ccccc12`, 0.8 µg/mL (≈ 2.35 µM).
`O=C(c1cc2ccccc2o1)N1CCCC1` registered a solubility (kinetic) of over 32.3 µg/mL.
The result for `CC(OC(=O)c1ccc(O)cc1)C(=O)Nc1ccc(Oc2ccccc2)cc1` (stereo not drawn) reads 5 µg/mL (≈ 13.2 µM); that for `COc1cccc(C(=O)NC2CC3CCC(C2)N3Cc2ccccc2)c1` (stereo not drawn), 52.2 µg/mL (≈ 149 µM); that for `O=C(/C=C/c1cccc(F)c1)N1CCN(c2ccccn2)CC1`, 39.4 µg/mL (≈ 127 µM).
Regarding `COc1ccccc1NC(=O)NCC1(N(C)C)CCCCC1`, the kinetic solubility was over 45.8 µg/mL.
The result for `COc1ccccc1-c1cc(C(=O)N2CCCc3ccccc32)no1` reads 3.1 µg/mL (≈ 9.27 µM).
As to `CCC(=O)Nc1ccc2c(c1)nc(CCNC(=O)c1ccco1)n2C`, the solubility (kinetic) was over 51.1 µg/mL.
With `Cc1ccc(S(=O)(=O)NCCc2ccncc2)cc1C` the figure was over 43.6 µg/mL; with `Brc1cccc(-c2cnco2)c1`, 4 µg/mL (≈ 17.9 µM); with `CN(C)C(=O)c1ccccc1NC(=O)Cc1cccc2ccccc12`, 49.8 µg/mL (≈ 150 µM).
Compound `CN(C)CCN1C(=O)NC(C)(c2ccc([N+](=O)[O-])cc2)C1=O` (stereo not drawn) had a solubility (kinetic) of over 45.9 µg/mL.
As to `CC1CC(C)CN(C(=O)COC(=O)c2ccc3c(c2)OCO3)C1` (stereo not drawn), the solubility (kinetic) was found to be 47 µg/mL (≈ 147 µM).
The compound `O=C(O)CN1C(=O)/C(=C/c2cccc(Cl)c2)Oc2ccccc21` yielded a kinetic solubility of 30.8 µg/mL (≈ 93.4 µM).
As to `CC(=O)Nc1ccc(S(=O)(=O)N2CCCCC2C(=O)O)cc1` (stereo not drawn), the kinetic solubility stood at 44.4 µg/mL (≈ 136 µM).
Compound `O=C(NC1CC1)c1sc2cc(Cl)ccc2c1Cl` showed a solubility (kinetic) of 1.2 µg/mL (≈ 4.19 µM).
`CN(C)C1(CN=Cc2cc(Cl)cc([N+](=O)[O-])c2O)CCCCC1`: the kinetic solubility is over 51 µg/mL.
Compound `COc1ccc(OC)c(C2NC(=O)CCC2[N+](=O)[O-])c1` (stereo not drawn) yielded a kinetic solubility of 40.1 µg/mL (≈ 143 µM).
The result for `N#Cc1ccsc1NC(=O)CN1C(=O)NC2(CCCCC2)C1=O` reads 47.3 µg/mL (≈ 142 µM); that for `Cc1cc(C)nc(NC=C2C(=O)OC(C)(C)OC2=O)n1`, 41 µg/mL (≈ 148 µM).
With `COc1ccccc1NS(=O)(=O)c1cccc2nsnc12` the figure was 35 µg/mL (≈ 109 µM).
For `COc1ccc(OCC(O)CNS(=O)(=O)c2cccc(Cl)c2)cc1` (stereo not drawn), the kinetic solubility is 51.4 µg/mL (≈ 138 µM).
In turn, `COc1cccc(/C=N/NC(=O)CNC(=O)COc2ccccc2)c1O` had a solubility (kinetic) of over 53.6 µg/mL.
Regarding `CC(C)COP(=O)(c1ccc(N(C)C)cc1)C(O)c1cccnc1` (stereo not drawn), the solubility (kinetic) came out at 49.6 µg/mL (≈ 142 µM).
The compound `Cc1cccc(CSc2[nH]c(=O)ncc2C)c1` had a solubility (kinetic) of 15.7 µg/mL (≈ 63.7 µM).
Compound `S=C(NCc1ccco1)Nc1ccc(Oc2ccc(Cl)cc2)cc1` gave a solubility (kinetic) of under 0.4 µg/mL.
Take `CC1=CC(C)(C)N=C(Nc2nc(C)c3cc(C)cc(C)c3n2)N1`: the solubility (kinetic) was over 46.4 µg/mL.
Compound `CSc1cccc(NC(N)=O)c1` came in with a kinetic solubility of 25.1 µg/mL (≈ 138 µM).
With `CN1CCN(c2ccc(C(F)(F)F)cc2NC(=O)c2ccco2)CC1` the figure was over 53 µg/mL; with `Cc1cccn2cc(CCNC(=O)c3cccs3)nc12`, over 42.8 µg/mL; with `CCCCn1c(N)c(N(C)C(=O)C2CC(=O)N(Cc3ccco3)C2)c(=O)[nH]c1=O` (stereo not drawn), over 60.5 µg/mL.
Compound `CC(C)c1ccc(OCCCN2CCCC2)cc1` showed a kinetic solubility of 28.8 µg/mL (≈ 116 µM).
In the case of `O=C1CCC([N+](=O)[O-])C(c2ccc(C(F)(F)F)cc2)N1` (stereo not drawn), the solubility (kinetic) was over 43.2 µg/mL.
Compound `CCOc1ccc(NC(=O)C2CCCN(S(C)(=O)=O)C2)cc1` (stereo not drawn) registered a solubility (kinetic) of 4.1 µg/mL (≈ 12.6 µM).
Regarding `Cc1nc(SC(C)C(=O)NCc2ccc3c(c2)OCO3)nc(C)c1C` (stereo not drawn), the kinetic solubility was over 53.9 µg/mL.
In turn, `Cc1ccc(-c2nnc(SCC(=O)NC3CCCC3)n2N)cc1` showed a solubility (kinetic) of over 49.7 µg/mL.
Turning to `CCc1cccc(C)c1NC(=O)CN1C(=O)NC(CCc2ccccc2)C1=O` (stereo not drawn), the kinetic solubility turned out to be 7.6 µg/mL (≈ 20 µM).
`CC(=O)/C=C(\C)Nc1c(C)n(C)n(-c2ccccc2)c1=O` registered a kinetic solubility of over 42.8 µg/mL.
As to `Cc1ccc(Nc2ccc([N+](=O)[O-])ccc2=O)cc1`, the solubility (kinetic) was under 0.3 µg/mL.
`COc1cc2c(cc1OC)C(c1cccc([N+](=O)[O-])c1)=NCC2` came in with a solubility (kinetic) of over 46.8 µg/mL.
In turn, `Cc1cc(=O)c2cc(Br)ccc2n1CC(=O)NCc1ccccc1` registered a solubility (kinetic) of 1.3 µg/mL (≈ 3.37 µM).
Compound `Cc1cc(C(=O)Nc2cccc(C)c2C)c2ccccc2n1` registered a solubility (kinetic) of 40.1 µg/mL (≈ 138 µM).
The result for `Cc1ccc(C)c(NC(=S)N2CCN(c3ccccn3)CC2)c1` reads 14.1 µg/mL (≈ 43.2 µM); that for `Cc1ccc(C)n1-c1cc([N+](=O)[O-])ccc1-n1ccnc1`, 35.9 µg/mL (≈ 127 µM); that for `CC(=O)c1cccc(NC(=O)CCNC(=O)c2ccccc2Cl)c1`, over 51.7 µg/mL.
